From patent publication US7943804B2, “Lutein extraction from ozone-treated plant sources” (Board of Supervisors of Louisiana State University and …, priority 2006, dated 2011)
Like-named read-outs stand apart in the source and are kept apart here.

How the values were obtained:
[1] = tested on: AFB1 mutagenicity in Salmonella typhimurium tester strain TA100; assay type: cell-based; details: AFB1 500 ng/plate
[2] = tested on: AFB1 mutagenicity, Salmonella strains; details: cited from earlier work
[3] = tested on: Salmonella typhimurium tester strain TA100; details: for Number of Revertants (without use of AFB1): TA100
[4] = tested on: Salmonella typhimurium tester strain TA100; assay type: cell-based

Compound: CC1=C[C@H](O)CC(C)(C)[C@H]1/C=C/C(C)=C/C=C/C(C)=C/C=C/C=C(C)/C=C/C=C(C)/C=C/C1=C(C)C[C@@H](O)CC1(C)C [Lutein, β, e-carotene-3,3′-diol]
- inhibition of AFB1 mutagenicity, result in words ([1]; TA100): inhibited AFB1 (500 ng/plate) mutagenicity in a dose-response manner
- Number of Revertants ([1]; lutein standard 0.02 μg/plate): 876 ± 34
- Percent Inhibition ([1]; lutein standard 0.02 μg/plate): 5.3%
- Number of Revertants ([1]; lutein standard 0.2 μg/plate): 813 ± 45
- Percent Inhibition ([1]; lutein standard 0.2 μg/plate): 12.1%
- Number of Revertants ([1]; lutein standard 0.8 μg/plate): 741 ± 25
- Percent Inhibition ([1]; lutein standard 0.8 μg/plate): 19.9%
- Number of Revertants ([1]; lutein standard 2 μg/plate): 679 ± 39
- Percent Inhibition ([1]; lutein standard 2 μg/plate): 26.6%
- Number of Revertants ([1]; lutein standard 10 μg/plate): 568 ± 50
- Percent Inhibition ([1]; lutein standard 10 μg/plate): 38.6%
- mutagenic effect of aflatoxin relative to control [2]: 2%
- inhibition of AFB1 mutagenicity, result in words ([2]; test based on Salmonella strains): inhibit the mutagenicity of AFB1
- mutagenic effect (increase of revertants over the natural rate) ([3]; TA100, result in words): neither purified lutein nor corn lutein extracts increase the number of revertants over the natural rate
- Number of Revertants (without use of AFB1) ([3]; lutein standard 0.02 μg/plate): 247 ± 15
- Number of Revertants (without use of AFB1) ([3]; lutein standard 0.2 μg/plate, listed as Lutein Standard): 258 ± 10
- Number of Revertants (without use of AFB1) ([3]; lutein standard 0.2 μg/plate, listed as lutein standard): 254
- Number of Revertants (without use of AFB1) ([3]; lutein standard 0.8 μg/plate, listed as Lutein Standard): 261 ± 13
- Number of Revertants (without use of AFB1) ([3]; lutein standard 0.8 μg/plate, listed as lutein standard): 261
- Number of Revertants (without use of AFB1) ([3]; lutein standard 2 μg/plate): 243 ± 8
- Number of Revertants (without use of AFB1) ([3]; lutein standard 10 μg/plate, listed as Lutein Standard): 264 ± 12
- Number of Revertants (without use of AFB1) ([3]; lutein standard 10 μg/plate, listed as lutein standard): 264

Compound: aflatoxin B1 [AFB1]
- mutagenic potency [4]: about 925 revertants/plate

Compound: CC1=CCCC(C)(C)[C@H]1/C=C/C(C)=C/C=C/C(C)=C/C=C/C=C(C)/C=C/C=C(C)/C=C/C1=C(C)CCCC1(C)C [α-carotene]
- mutagenic effect of aflatoxin relative to control [2]: 2%
